“And” between values parts separate entries of the source, which are not always exact repeats. Equal entries are not always repeated. Where two headings read alike, the source gives them in different places.
What was measured:
human NR1/NR2B = human NR1/NR2B (Homo sapiens (Human), UniProt Q05586+Q13224); assay: NR2B antagonist activity: calcium influx (Fluo-4) assay in HEK293 cells; assay type: cell-based; conditions: read-out: NR2B IC50
Method: Activation of the NR2A or NR2B subtype of NMDA receptor with glutamate as an agonist and glycine co-agonist on these cells results in calcium influx, which can be monitored with fluorescent indicator Fluo-4.
For experiments, the cells were seeded onto poly-D-lysine-coated 96-well black plates with clear bottom (Corning) at a density of ˜50,000 cells/well. After overnight culture, the growth medium was removed from the wells and the cells were incubated at 37° C. for 60 minutes in Hanks buffer containing 4 μM fluo-4-AM (Invitrogen) and 0.1% bovine serum albumin (BSA). After dye-loading, the cells were washed three times with Hanks buffer and incubated for 10 minutes at room temperature with various concentrations of test compounds prepared in Hanks buffer with 0.1% BSA. The cell plates were placed onto an FDSS Cell fluorescence reader (Hamamatsu). After 20 seconds of reading background fluorescence, agonist glutamate at final 100 µM and co-agonist glycine at final 50 μM were added to the cells to activate the receptor, and the resulting fluorescence changes were recorded and quantified. Based on the changes in fluorescence intensity, the pharmacological effect of test compounds was analyzed and the IC50 values derived from a non-linear least squares fitting of the concentration-dependent response to a standard logistic equation using Prism (Graphpad Software, Inc.): Amplitude=Max Amplitude/(1+(IC50/[antagonist])^n).

[1] = molecular target: native rat brain NR2B receptors (Rattus norvegicus (Rat), UniProt P35439+Q00960); assay: NR2B radioligand binding assay in rat brain using [3H] (E)-N1-(2-methoxybenzyl)-cinnamidine; conditions: rat brain NR2B receptors
Method: This example describes an NR2B receptor binding assay in rat brain using [^3H] […] The binding assay method was adapted from a previously described cellular human NR1a/NR2B cloned receptor assay (Kiss et al. Neurochem. Internatl. 2005, 46:453-464) to rat brain tissue. This assay serves as a selective measure of NR2B receptor binding activity in native rat brain receptors. Briefly, the brains of male Wistar rats were homogenized (Polytron) before centrifugation at 40,000×g for 15 minutes at 4° C. After 2 washes, the final pellet was homogenized and stored at −80° C. The protein concentration was determined by Bradford assay. [^3H] […] Non-specific binding was assessed in the presence of excess (10 μM) (E)-N1-(2-nethoxybenzyl)-cinnamidine.
Test compounds were solubilized at 10 mM in DMSO. Then the dilutions were performed with a constant solvent concentration (1% DMSO) in the assay. After incubation for 4.5 hours at room temperature, the assays were filtered on GF/3 filters pretreated with 0.3% (v/v) polyethylenimine (PEI) with a Packard system. The experiment was performed in duplicate (n=2).

hERG channel = hERG channel (Homo sapiens (Human), UniProt Q12809); assay: hERG channel inhibition, whole cell patch clamp in HEK293 cells; assay type: cell-based; conditions: for inhibition at 5 min, 10 µM: human, HEK293 cells stably expressing hERG channel, pH 7.35; for IC50: Table 1.3B
CYP2D6 = CYP2D6 (Homo sapiens (Human), UniProt P10635); assay: CYP P450 enzyme inhibition in pooled human liver microsomes (dextromethorphan probe); assay type: in vitro ADME; conditions: for inhibition at 10 min, 10 µM: human, pooled human liver microsomes, pH 7.4, probe dextromethorphan, 5 μM, read-out: CYP2D6 Inhibiton at 10 μM; for IC50: Table 1.4B
Method: Test compound concentration-dependent response studies were performed in triplicate.

[2] = system: wild type mice (male NMRI); assay: Marble Burying Test in wild type mice; assay type: in vivo, mouse
Method: Animals. Male NMRI mice (20-30 g body weight) were obtained from Janvier Labs (Le Genest-Saint Isle, France) and allowed to acclimate to the animal facility for at least 5 days. Twelve mice were studied per treatment group.
Compound formulation. The test compounds were prepared in a vehicle of 0.5% DMSO and 4% HP-β-CD, and administered orally (PO) or IP. The test compounds or vehicle were administered 20 minutes before the behavioral test described below. Clobazam (8 mg/kg IP), administered 30 minutes before the test, was used as the positive reference compound.
Clobazam was dispersed in 0.2% hydroxypropylmethylcellulose (HPMC) in physiological saline. Dosing volume was 10 mL/kg.
Testing procedure. The Marble Burying Test was conducted as previously described by Broekkamp et al. (Eur. J. Pharmacol. 1986, 126:223-229). Mice exposed to small novel objects (marbles) will bury them in the sawdust floor covering. Anxiolytics decrease the number of marbles buried at non-sedating doses. Mice were individually placed in transparent plastic cages (33×21×18 cm) with 5 cm of sawdust on the floor and 25 marbles grouped in the center of the cage. The cage was covered with an inverted plastic cage. Each test cage, together with the marbles, was impregnated with mouse odor before-hand by leaving 10 mice in the cage for 15 minutes. These mice then played no further role in the experiment. The number of marbles covered by sawdust (⅔ or more) was counted at the end of the 30-minute test. The test was performed blind (compounds versus vehicle).
Statistical analyses. Data were analyzed by comparing test compound-treated groups with the vehicle control group using the Kruskal-Wallis test followed by post-hoc Mann-Whitney U tests. Data comparing the reference compound with the vehicle were analyzed using the Mann-Whitney U test. A p value<0.05 was considered significant.

[3] = mean of replicates, read-out: Arithmetic Mean Ki
[4] = Mus musculus, ip, read-out: Percent Change in marbles buried relative to vehicle
[5] = Mus musculus, po, read-out: Percent Change in marbles buried relative to vehicle

CYP2D6, sequence (P10635 whole entry): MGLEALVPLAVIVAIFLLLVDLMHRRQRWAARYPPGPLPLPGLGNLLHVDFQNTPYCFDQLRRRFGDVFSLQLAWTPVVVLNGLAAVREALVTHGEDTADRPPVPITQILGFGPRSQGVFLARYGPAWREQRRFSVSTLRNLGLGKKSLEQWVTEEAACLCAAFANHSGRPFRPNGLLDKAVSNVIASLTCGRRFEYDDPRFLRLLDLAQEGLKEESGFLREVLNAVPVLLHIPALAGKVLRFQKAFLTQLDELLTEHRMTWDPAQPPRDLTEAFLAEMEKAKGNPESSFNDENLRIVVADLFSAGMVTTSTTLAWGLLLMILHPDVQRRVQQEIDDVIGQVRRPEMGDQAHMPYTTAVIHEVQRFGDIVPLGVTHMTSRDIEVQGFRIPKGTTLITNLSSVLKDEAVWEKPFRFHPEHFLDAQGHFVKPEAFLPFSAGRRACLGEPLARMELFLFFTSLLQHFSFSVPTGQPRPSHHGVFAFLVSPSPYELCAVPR
native rat brain NR2B receptors, sequence (Q00960 27-1482, other chains not shown): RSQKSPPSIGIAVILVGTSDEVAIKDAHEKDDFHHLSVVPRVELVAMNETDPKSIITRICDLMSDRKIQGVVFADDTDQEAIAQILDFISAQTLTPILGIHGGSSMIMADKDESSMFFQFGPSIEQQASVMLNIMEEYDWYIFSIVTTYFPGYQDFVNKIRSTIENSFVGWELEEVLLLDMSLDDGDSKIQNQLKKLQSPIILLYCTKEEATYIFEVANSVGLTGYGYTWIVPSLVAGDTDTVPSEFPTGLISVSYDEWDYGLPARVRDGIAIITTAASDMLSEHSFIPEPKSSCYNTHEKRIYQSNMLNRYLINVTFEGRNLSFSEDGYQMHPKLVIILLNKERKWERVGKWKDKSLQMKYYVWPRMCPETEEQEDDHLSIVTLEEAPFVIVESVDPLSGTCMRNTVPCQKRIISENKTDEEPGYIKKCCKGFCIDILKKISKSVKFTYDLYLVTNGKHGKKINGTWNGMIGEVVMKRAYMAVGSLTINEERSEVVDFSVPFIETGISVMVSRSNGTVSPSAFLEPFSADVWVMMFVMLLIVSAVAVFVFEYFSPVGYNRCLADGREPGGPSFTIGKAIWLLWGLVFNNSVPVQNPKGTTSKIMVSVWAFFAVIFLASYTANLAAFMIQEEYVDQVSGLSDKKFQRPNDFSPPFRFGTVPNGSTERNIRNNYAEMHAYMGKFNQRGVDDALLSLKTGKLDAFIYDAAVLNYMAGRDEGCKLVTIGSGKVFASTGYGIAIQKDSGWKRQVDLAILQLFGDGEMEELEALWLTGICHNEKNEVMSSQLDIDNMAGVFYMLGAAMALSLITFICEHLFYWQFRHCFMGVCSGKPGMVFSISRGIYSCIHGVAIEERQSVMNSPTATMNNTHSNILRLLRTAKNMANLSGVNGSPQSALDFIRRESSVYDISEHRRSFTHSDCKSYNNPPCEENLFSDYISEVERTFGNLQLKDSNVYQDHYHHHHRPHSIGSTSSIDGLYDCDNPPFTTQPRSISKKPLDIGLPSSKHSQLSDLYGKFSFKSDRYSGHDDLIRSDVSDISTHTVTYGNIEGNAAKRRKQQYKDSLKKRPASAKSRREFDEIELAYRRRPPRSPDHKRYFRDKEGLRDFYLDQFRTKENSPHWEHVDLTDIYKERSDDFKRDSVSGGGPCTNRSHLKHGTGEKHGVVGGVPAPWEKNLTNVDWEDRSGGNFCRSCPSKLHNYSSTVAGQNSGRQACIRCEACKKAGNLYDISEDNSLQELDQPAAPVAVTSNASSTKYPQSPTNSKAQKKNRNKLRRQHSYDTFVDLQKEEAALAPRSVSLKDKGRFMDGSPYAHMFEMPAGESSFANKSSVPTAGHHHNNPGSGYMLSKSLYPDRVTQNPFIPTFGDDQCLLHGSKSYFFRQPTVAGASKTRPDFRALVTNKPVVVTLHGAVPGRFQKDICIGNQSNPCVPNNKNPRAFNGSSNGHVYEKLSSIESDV
hERG channel, sequence (Q12809 whole entry): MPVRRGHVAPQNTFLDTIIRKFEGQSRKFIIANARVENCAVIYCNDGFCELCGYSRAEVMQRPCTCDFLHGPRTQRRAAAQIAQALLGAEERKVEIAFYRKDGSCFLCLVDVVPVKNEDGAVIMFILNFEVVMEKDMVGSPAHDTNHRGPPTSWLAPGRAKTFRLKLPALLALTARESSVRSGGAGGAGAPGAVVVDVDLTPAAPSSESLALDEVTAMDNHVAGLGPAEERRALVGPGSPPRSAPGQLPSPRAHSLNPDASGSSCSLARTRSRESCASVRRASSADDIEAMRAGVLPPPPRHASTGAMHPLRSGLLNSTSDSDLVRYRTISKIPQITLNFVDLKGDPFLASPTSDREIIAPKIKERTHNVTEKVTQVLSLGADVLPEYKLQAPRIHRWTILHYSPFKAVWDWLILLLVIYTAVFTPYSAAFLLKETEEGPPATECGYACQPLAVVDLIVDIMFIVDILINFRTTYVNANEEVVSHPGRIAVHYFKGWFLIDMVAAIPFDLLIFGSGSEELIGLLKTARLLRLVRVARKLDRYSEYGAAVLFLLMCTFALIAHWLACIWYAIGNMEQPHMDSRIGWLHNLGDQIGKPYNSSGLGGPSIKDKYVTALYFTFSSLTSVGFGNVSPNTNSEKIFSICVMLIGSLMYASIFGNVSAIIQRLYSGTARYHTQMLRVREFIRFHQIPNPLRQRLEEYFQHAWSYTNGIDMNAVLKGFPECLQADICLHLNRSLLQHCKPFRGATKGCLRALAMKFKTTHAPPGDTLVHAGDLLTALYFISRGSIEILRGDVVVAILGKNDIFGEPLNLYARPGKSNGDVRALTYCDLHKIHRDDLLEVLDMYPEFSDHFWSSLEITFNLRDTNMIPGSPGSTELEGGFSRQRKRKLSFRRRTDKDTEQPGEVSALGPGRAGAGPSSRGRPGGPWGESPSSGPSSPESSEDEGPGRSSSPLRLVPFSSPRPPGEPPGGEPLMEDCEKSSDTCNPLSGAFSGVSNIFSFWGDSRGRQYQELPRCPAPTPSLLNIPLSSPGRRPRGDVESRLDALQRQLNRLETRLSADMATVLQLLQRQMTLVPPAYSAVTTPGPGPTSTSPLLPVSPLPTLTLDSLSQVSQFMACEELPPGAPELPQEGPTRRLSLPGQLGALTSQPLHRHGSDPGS
human NR1/NR2B, sequence (Q13224 27-1484, other chains not shown): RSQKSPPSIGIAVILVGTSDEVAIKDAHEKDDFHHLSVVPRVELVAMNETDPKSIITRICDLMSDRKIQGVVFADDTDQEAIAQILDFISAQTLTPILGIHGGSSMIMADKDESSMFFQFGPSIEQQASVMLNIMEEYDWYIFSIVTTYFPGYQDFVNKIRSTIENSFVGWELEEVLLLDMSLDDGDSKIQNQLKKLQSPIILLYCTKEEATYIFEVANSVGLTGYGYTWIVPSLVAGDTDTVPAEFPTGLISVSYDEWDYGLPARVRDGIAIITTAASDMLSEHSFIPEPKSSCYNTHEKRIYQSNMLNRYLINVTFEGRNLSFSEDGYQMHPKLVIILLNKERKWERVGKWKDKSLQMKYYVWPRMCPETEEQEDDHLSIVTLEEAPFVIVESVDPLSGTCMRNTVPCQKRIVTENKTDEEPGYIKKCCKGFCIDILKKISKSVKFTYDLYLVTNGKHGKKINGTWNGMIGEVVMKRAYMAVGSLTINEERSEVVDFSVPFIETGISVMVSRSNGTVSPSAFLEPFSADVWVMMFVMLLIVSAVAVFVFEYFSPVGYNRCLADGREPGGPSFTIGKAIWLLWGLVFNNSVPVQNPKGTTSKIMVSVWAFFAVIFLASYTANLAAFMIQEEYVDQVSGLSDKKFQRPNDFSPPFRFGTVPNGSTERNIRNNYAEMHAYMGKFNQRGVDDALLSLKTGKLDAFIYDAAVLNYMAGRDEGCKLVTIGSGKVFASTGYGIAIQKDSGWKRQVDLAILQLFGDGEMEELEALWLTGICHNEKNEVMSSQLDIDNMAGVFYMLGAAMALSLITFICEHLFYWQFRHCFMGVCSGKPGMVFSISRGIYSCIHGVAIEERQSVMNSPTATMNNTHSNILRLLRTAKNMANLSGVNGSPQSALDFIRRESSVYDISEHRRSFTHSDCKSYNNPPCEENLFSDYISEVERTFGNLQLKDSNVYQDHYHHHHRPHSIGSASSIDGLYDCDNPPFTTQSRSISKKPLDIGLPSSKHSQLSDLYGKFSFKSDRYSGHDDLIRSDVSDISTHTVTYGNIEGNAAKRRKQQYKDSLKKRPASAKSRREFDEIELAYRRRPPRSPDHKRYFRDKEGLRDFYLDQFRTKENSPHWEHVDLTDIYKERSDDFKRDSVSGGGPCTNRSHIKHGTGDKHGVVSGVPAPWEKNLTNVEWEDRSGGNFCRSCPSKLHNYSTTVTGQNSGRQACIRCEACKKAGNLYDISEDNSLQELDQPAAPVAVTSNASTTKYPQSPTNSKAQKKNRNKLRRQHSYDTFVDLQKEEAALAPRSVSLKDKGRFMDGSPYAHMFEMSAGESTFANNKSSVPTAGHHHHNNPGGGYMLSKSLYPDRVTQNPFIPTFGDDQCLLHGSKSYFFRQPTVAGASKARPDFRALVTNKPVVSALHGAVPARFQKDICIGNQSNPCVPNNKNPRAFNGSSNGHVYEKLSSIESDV

Row | Structure (SMILES) | IC50 (human NR1/NR2B; Table 1.1B) [nM] | IC50 (human NR1/NR2B; Table 1.3B) [nM] | IC50 (human NR1/NR2B; Table 1.4B) [nM] | Ki [1, 3] [nM] | inhibition at 5 min, 10 µM (hERG channel) [%] | inhibition at 10 min, 10 µM (CYP2D6) [%] | IC50 (hERG channel) [nM] | IC50 (CYP2D6) [nM] | change in vivo at 0.3 mg/kg [2, 4] [%] | change in vivo at 3 mg/kg [2, 4] [%] | also measured
1 | O=C(OCc1ccc(Cl)cc1)N1CC[C@H](CNc2nccn3cnnc23)C(F)(F)C1 [E1-1.3^B′] | 14.8 | 14.8 | 14.8 | 8.67 | 19 | 37 | – | – | – | – | –
2 | O=C(OCc1ccc(F)cc1)N1CC[C@H](CNc2nccn3cnnc23)C(F)(F)C1 [E1-1.4^B′] | 20.5 | 20.5 | 20.5 | – | 11 | 19 | – | – | – | – | –
3 | Cc1ccc(COC(=O)N2CC[C@H](CNc3cnccn3)C(F)(F)C2)cc1 [E1-21.2^B′] | 13.9 | 13.9 | 13.9 | – | 27 | 97 | – | – | – | – | –
4 | O=C(OCc1ccc(F)cc1)N1CC[C@H](CNc2ncccn2)C(F)(F)C1 [E1-22.4^B′, (R)-4-fluorobenzyl 3,3-difluoro-4-((pyrimidin-2-ylamino)methyl)piperidine-1-carboxylate methanesulfonate] | – | – | – | – | – | – | 39000 | > 50000 | -6 | -99 | change in vivo at 1.78 mg/kg ([2]; Mus musculus, ip, 1.78 mg/kg, read-out: Percent Change in marbles buried relative to vehicle): -97%
5 | CCc1ccc(COC(=O)N2CC[C@H](CNc3ncccn3)C(F)(F)C2)cc1 [E1-22.5^B′, (R)-4-ethylbenzyl 3,3-difluoro-4-((pyrimidin-2-ylamino)methyl)piperidine-1-carboxylate methanesulfonate] | – | – | – | – | – | – | 9200 | 29000 | 8 | -100 | change in vivo at 0.1 mg/kg ([2]; Mus musculus, ip, 0.1 mg/kg, read-out: Percent Change in marbles buried relative to vehicle): -9%; change in vivo at 10 mg/kg ([2]; Mus musculus, ip, 10 mg/kg, read-out: Percent Change in marbles buried relative to vehicle): -100%; change in vivo at 0.3 mg/kg [2, 5]: -11%; change in vivo at 1 mg/kg [2, 5]: -15%; change in vivo at 3 mg/kg [2, 5]: -76%; efficacy in the Marble Burying Test ([2]; lowest test concentration of 1 mg/kg, IP): fully efficacious
6 | Cc1ccc(COC(=O)N2CC[C@H](CNc3ccc(C)cn3)C(F)(F)C2)cc1 [E1-23.26^B′, (R)-4-methylbenzyl 3,3-difluoro-4-(((5-methylpyridin-2-yl)amino)methyl)piperidine-1-carboxylate] | – | – | – | 6.5 | – | – | – | 9700 | – | – | –
7 | Cc1ccc(COC(=O)N2CC[C@H](CNc3cccnn3)C(F)(F)C2)cc1 [E1-24.2^B′, (R)-4-methylbenzyl 3,3-difluoro-4-((pyridazin-3-ylamino)methyl)piperidine-1-carboxylate] | – | – | – | 2.85 | – | – | 25000 | 15000 | – | – | Ki ([1]; individual replicate, read-out: Ki, result from each assay): 2.1 nM and 3.6 nM
8 | Cc1ccc(COC(=O)N2CC[C@H](CNc3ccncc3)C(F)(F)C2)cc1 [E1-38.2^B′, (R)-4-methylbenzyl 3,3-difluoro-4-((pyridin-4-ylamino)methyl)piperidine-1-carboxylate methanesulfonate] | – | – | – | – | – | – | 2900 | 1490 | 4 | -76 | change in vivo at 1 mg/kg [2, 4]: -18%
9 | O=C(OC1Cc2ccccc2C1)N1CC[C@H](CNc2ncccn2)C(F)(F)C1 [III-E1-22.1^B′, (R)-2,3-dihydro-1H-inden-2-yl 3,3-difluoro-4-((pyrimidin-2-ylamino)methyl)piperidine-1-carboxylate methanesulfonate] | – | – | – | – | – | – | 35000 | > 50000 | – | – | –

Source: US11752155B2, “Treatment of autism spectrum disorders, obsessive-compulsive disorder and anxiety disorders” (Rugen Holdings (Cayman) Limited, priority 2016, dated 2023)
